# Results reported in publication PMC5458179, “Oxidative DNA double strand breaks and autophagy in the antitumor effect of sterically hindered platinum(II) complexes in NSCLCs” (Oncotarget, 2017).
# How the values were obtained:
# Type in all cases: cell-based, human
# [1] = tested on: A549 cancer cells; test: Intracellular ATP production; settings: A549, 10 μM, 12 h
# Protocol: (§1) Since ATP production is a significant consequence attributed to the dysfunction of mitochondrial energy production, we measured intracellular ATP levels after complex 3 treatment.
# (§2) The ATP production assay kit (Haimen, Jiangsu, China) was used to measure intracellular ATP level according to the manufacturer's instructions. […] Detection was performed using the luminometer Orion II (Berthold DS, Bleichstr, Pforzheim, Germany).
# [2] = tested on: NCI-H1299 cancer cells; test: Intracellular ATP production; settings: NCI-H1299, 10 μM, 12 h
# Protocol: as §1, §2
# [3] = tested on: A549 and NCI-H1299 cancer cells; test: Colony formation assay; settings: A549 and NCI-H1299, 7 days
# Protocol: Cells were trypsinized and plated at a density of 500 perplate. […] Cells were then fixed with 3% paraformaldehyde, stained with crystal violet and imaged with a light microscope. The experiment was performed in triplicate. The number of colonies, defined as containing > 50 cells, was counted.
# [4] = tested on: A549 and NCI-H1299 cancer cells; test: ROS measurement (DCF fluorescence); settings: A549 and NCI-H1299, 10 μM
# Protocol: (§3) As excessive ROS generation is associated with cell-killing activity, we further examined whether complex 3 could also induce the formation of excessive ROS in A549 and NCI-H1299 cancer cells.
# The generation of ROS induced by complex 3 was determined with the cell permeant fluorogenic probe 2′,7′-dichlorodihydrofluorescein diacetate (H2DCFDA; Molecular Probes, Invitrogen, Darmstadt, Germany) as described. H2DCFDA diffuses into the cell, where it is enzymatically converted by intracellular esterases and oxidized into the high fluorescence compound DCF, which allows the determination of H2O2, peroxynitrite anions and peroxyl radicals. Approximately 4×10^3 A549 and NCI-H1299 cancer cells per well were plated on white bottom 96-well plates in extracellular fluid ([…] NaCl, 3 mM KCl, 1 mM CaCl2, 1 mM MgCl2, 10 mM HEPES and 25 mM glucose; pH 7.4). […] Then, cells were loaded with […] H2DCFDA for 30 min at 37°C and 5% CO2. Then, cells DCF generation was measured over time using a fluorometer (Fluostar BMG Labtech, Offenburg, Germany) at 492 nm excitation and 520 nm emission.
# [5] = tested on: A549 and NCI-H1299 cancer cells; test: H2O2 measurement (Amplex Red); settings: A549 and NCI-H1299, 10 μM, 2 h
# Protocol: as §3
# The production of H2O2 was determined with the Amplex® Red reagent (10-acetyl-3,7-dihydroxyphenoxazine; Molecular Probes). In the presence of horseradish peroxidase (HPR), the Amplex® Red reagent reacts in a 1:1 stoichiometry to produce the red-fluorescent oxidation product, resorufin. Consequently, resorufin generation allows the detection of the H2O2 released from biological compounds. […] Resorufin generation was measured over time using a fluorometer (Fluostar BMG Labtech) at 544 nm excitation and 590 nm emission.
compound,measurement,setting,value
CC(C)C[NH+]1[C@@H]2CCCC[C@H]2[NH+](CC(C)C)[Pt-2]12[O]C(=O)CC(=O)[O]2 (some centres unmarked) [Complex 3],"ATP level, % of untreated cells",[1],19.95%
same,"ATP level, % of untreated cells",[2],31.89%
same,colony formation,[3],significantly reduced colony formation
same,ROS production,[4],induced the production of significant amounts of ROS
same,production of H2O2,[5],significantly higher
